These results are taken from patent publication US20130035326A1 (AMBIT BIOSCIENCES CORPORATION, priority 2009, published 2013).

The structures appear in SMILES notation. Some results are limits rather than exact numbers.

In experiment [1] the target is kinase panel containing either 359 or 386 distinct kinases. Description: Selectivity score S10 from competition binding against a panel of kinases. As to conditions: compounds at 10 μM; panel of 386 distinct kinases. As to the method: Competition binding assays used herein were developed, validated and performed as described in Fabian et al., Nature Biotechnology 2005, 23,329-336. Kinases were produced as fusions to T7 phage (See, Fabian et al. or WO04/015142) or alternatively, the kinases were expressed in HEK-293 cells and subsequently tagged with DNA for PCR detection (See, WO08/005,310). For the binding assays, streptavidin-coated magnetic beads were treated with biotinylated affinity ligands for 30 min at room temperature to generate affinity resins. The liganded beads were blocked with excess biotin and washed with blocking buffer (SeaBlock (Pierce), 1% BSA, 0.05% Tween 20, 1 mM DTT) to remove unbound ligand and to reduce non-specific binding. Binding reactions were assembled by combining kinase, liganded affinity beads, and test compounds in 1× binding buffer (20% SeaBlock, 0.17×PBS, 0.05% Tween 20, 6 mM DTT). Test compounds were prepared as 100× stocks in DMSO and diluted into the aqueous environment. Kds were determined using an eleven point threefold serial dilutions. DMSO or control compounds were was added to control assays lacking a test compound. Primary screen assays were performed in polypropylene 384-well plates in a final volume of 20-40 μL, while Kd determinations were performed in polystyrene 96-well plates in a final volume of 135 μL. The assay plates were incubated at room temperature with shaking for 1 hour to allow the binding reactions to reach equilibrium, and the affinity beads were washed extensively with wash buffer (1×PBS, 0.05% Tween 20) to remove unbound protein. The beads were then resuspended in elution buffer (1×PBS, 0.05% Tween 20, 0.5 μM non-biotinylated affinity ligand) and incubated at room temperature with shaking for 30 min. The kinase concentration in the eluates was measured by quantitative PCR.
A selectivity score (S10) is a quantitative measure of selectivity of a compound against a panel of kinases. An S10 was calculated for a compound by dividing the number of kinases found to have a percent of control (DMSO) less than 10 by the total number of distinct kinases tested (excluding mutant variants). Percent of control (POC) is calculated by subtracting the signal of the control compound (POC=0) from the signal of the test compound and dividing the outcome by the signal of DMSO (POC=100) minus the signal of the control compound. For the compounds disclosed herein, S10 scores were obtained by testing the compounds at 10 μM concentration in a kinase panel containing either 359 or 386 distinct kinases.

The target of experiment [2] is T1, FLT3 kinase (Homo sapiens, UniProt P36888).
T1 construct: made in house; host or cells: T7 phage display or HEK-293 cells
T1 sequence (P36888 27-993): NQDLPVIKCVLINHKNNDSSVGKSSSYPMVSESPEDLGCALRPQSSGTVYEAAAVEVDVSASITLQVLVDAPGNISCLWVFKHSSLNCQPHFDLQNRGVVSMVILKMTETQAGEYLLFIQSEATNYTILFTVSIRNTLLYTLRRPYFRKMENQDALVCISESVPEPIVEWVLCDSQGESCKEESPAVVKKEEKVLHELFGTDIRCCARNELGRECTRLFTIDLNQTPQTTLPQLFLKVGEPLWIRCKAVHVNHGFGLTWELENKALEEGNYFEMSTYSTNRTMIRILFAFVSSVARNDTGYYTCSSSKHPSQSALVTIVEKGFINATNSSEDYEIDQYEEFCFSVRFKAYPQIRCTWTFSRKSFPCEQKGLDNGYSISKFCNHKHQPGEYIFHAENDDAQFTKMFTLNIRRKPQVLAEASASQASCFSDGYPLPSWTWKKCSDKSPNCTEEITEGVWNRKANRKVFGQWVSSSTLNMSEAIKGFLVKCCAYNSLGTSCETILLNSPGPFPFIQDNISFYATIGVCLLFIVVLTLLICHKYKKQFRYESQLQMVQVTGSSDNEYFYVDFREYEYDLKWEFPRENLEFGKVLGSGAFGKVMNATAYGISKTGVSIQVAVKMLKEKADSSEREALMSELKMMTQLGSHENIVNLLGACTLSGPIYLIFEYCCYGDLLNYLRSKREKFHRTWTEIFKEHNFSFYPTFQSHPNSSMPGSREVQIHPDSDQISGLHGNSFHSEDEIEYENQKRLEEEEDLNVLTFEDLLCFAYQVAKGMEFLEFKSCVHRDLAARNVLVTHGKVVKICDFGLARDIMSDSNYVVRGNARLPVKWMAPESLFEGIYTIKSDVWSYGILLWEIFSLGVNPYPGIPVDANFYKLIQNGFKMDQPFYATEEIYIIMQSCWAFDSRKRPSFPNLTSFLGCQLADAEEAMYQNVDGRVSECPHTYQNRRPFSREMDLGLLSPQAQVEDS
Description: Competition binding assay, FLT3 Kd. In short, it runs like this:
(§1)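 Kinases, either T7 phage fusions or HEK-293-expressed and DNA-tagged, competed for immobilised biotinylated affinity ligand against test compound, 1 h at RT in binding buffer with 6 mM DTT. Bound kinase eluted with 0.5 μM free ligand and quantified by qPCR; Kd from 11-point threefold dilutions.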

Experiment [3] has as its system MV4-11 cells. Description: MV4-11 cell proliferation assay (Alamar Blue). Type of experiment: cell-based. As to conditions: Homo sapiens, MV4-11, 72 h, 3 days incubation. In short, it runs like this: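 Flt3-ITD MV4-11 cells were serum-starved overnight in Iscove's with 0.5% FBS, then given compound at 9 half-log concentrations (0.5% DMSO) for 3 days at 37° C. Alamar Blue reduction was read after 3 h by fluorescence (560/590 nm). IC50 is the mean of duplicates versus negative control.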
For orientation: Resazurin is reduced to fluorescent resorufin, in cell work by metabolically active cells.

Experiment [4] deals with T2, KIT kinase (Homo sapiens, UniProt P10721).
T2 construct: made in house; host or cells: T7 phage display or HEK-293 cells
T2 sequence (P10721 26-976): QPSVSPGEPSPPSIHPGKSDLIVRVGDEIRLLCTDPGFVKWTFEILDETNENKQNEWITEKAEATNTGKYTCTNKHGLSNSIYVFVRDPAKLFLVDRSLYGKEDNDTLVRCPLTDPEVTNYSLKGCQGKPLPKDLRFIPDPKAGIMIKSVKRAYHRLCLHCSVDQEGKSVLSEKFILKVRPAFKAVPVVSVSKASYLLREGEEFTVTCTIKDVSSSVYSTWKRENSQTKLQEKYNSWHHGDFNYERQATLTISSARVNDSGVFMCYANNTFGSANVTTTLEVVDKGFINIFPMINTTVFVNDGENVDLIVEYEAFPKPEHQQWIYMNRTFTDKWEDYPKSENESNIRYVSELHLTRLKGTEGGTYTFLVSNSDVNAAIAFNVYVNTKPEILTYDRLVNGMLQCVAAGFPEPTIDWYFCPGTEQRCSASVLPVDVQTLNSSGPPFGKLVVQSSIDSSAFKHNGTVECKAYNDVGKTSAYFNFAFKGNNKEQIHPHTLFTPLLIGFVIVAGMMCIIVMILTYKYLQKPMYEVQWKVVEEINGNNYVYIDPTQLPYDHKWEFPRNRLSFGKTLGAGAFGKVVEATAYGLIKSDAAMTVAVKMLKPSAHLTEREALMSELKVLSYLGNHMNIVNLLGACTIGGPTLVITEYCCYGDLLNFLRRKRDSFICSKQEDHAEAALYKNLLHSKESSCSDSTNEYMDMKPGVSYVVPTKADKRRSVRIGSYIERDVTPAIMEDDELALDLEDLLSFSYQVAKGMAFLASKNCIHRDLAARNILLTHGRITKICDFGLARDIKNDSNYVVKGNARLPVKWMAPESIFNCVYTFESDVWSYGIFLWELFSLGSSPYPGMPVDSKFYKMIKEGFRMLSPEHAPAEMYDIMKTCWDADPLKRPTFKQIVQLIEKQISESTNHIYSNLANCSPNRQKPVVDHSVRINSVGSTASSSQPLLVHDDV
Description: Competition binding assay, KIT Kd. In short, it runs like this: as §1

In experiment [5] the target is T3, CSF-1R kinase (Homo sapiens, UniProt P07333).
T3 construct: made in house; host or cells: T7 phage display or HEK-293 cells
T3 sequence (P07333 20-972): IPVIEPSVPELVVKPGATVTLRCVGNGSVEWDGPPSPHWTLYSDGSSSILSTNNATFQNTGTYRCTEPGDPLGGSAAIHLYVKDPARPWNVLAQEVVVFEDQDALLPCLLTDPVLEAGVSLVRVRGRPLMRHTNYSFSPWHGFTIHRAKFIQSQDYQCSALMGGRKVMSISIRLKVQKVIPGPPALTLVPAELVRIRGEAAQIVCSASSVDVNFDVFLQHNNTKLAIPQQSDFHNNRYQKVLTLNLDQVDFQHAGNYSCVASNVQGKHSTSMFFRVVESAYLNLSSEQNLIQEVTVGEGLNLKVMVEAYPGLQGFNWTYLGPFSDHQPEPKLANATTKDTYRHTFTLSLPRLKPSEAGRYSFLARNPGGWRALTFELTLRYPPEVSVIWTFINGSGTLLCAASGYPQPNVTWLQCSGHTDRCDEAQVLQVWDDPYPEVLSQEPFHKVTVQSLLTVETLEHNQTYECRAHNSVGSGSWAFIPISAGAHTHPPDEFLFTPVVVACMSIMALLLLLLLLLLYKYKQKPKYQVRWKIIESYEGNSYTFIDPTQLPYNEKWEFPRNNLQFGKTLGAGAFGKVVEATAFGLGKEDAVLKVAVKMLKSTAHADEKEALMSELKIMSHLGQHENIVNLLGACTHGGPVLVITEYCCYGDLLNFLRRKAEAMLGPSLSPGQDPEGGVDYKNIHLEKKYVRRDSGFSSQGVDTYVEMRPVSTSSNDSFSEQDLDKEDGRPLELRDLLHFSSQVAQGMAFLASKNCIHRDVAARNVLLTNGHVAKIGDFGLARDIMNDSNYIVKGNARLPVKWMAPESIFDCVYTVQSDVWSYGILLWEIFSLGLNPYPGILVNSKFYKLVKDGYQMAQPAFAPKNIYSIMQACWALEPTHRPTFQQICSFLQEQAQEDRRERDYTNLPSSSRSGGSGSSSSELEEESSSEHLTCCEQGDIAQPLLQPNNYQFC
Description: Competition binding assay, CSF-1R Kd. In short, it runs like this: as §1

For the compound `CS(=O)(=O)O.Nc1ncc(-c2ccc(CC(=O)Nc3cc(C4(C(F)(F)F)CC4)on3)cc2)cc1F` [Example 127], the “Kinase specificty: S(10)-386 panel” value in experiment [1] was “B (0.1<B≦0.2 nM)”.
The term Kd denotes the concentration at which binding is half-saturated. High values mean weaker binding, low ones tighter binding. Broadly, the IC50 is the concentration at which inhibition is half-maximal. Take `CC(C)(C)c1cc(NC(=O)Cc2ccc(-c3ccc(N)nc3C(F)(F)F)cc2)no1.CS(=O)(=O)O` [Example 129, 5-(4-(2-(5-tert-butylisoxazol-3-ylamino)-2-oxoethyl)phenyl)-6-(trifluoromethybpyridin-2-aminium methanesulfonate]: the Kd in experiment [2] is 10 to 100 nM; in experiment [4], 10 to 100 nM; in experiment [5], greater than 500 nM. In experiment [3], the IC50 lay in the range of 100 to 500 nM.
On to `CC(C)(C)c1cc(NC(=O)Cc2ccc(-c3ccc(N)nc3C(F)(F)F)cc2)no1.CS(=O)(=O)O` [Example 129], for which the “Kinase specificty: S(10)-386 panel” value in experiment [1] was “A (A≦0.1)”.
Turning to `CS(=O)(=O)O.Cc1cc(-c2ccc(CC(=O)Nc3cc(C4(C(F)(F)F)CC4)on3)cc2)cnc1N` [Example 130, 3-methyl-5-(4-(2-oxo-2-(5-(1-(trifluoromethybcyclopropybisoxazol-3-ylamino)ethyl)phenyl)pyridin-2-aminium methanesulfonate], the Kd in experiment [2] is no more than 1 nM; in experiment [4], 1 to 10 nM; in experiment [5] it was no more than 10 nM. This compound also came in with an IC50 in experiment [3] of no more than 1 nM.
For `Cn1cc(-c2cc(-c3ccc(CC(=O)Nc4cc(C(C)(C)C)on4)cc3)cnc2N)cn1` [Example 154], the dissociation constant (Kd) in experiment [2] was no more than 1 nM; in experiment [4], 1 to 10 nM; in experiment [5], 10 to 100 nM. The IC50 in experiment [3] is 1 to 10 nM.
Turning to `CC(=O)OCC1(c2cc(NC(=O)Cc3ccc(-c4ccc(N)nc4)cc3)no2)CC1` [Example 169], the dissociation constant (Kd) was no more than 1 nM in experiment [2], 1 to 10 nM in experiment [4] and no more than 10 nM in experiment [5]. The compound also yielded an IC50 in experiment [3] of 10 to 100 nM.
The like results for `CC1(c2cc(NC(=O)Cc3ccc(-c4cnc(N)cc4F)cc3)no2)CC1` [Example 170] were, in that order, no more than 1 nM, 1 to 10 nM, no more than 10 nM and 1 to 10 nM.
On to `CCC1(c2cc(NC(=O)Cc3ccc(-c4ccc(N)nc4)cc3)no2)CC1` [Example 171], for which the results for the Kd in experiment [2], in experiment [4] and in experiment [5] were no more than 1 nM, 1 to 10 nM and no more than 10 nM, respectively. The compound also displayed an IC50 in experiment [3] of no more than 1 nM.
Consider `CC1(c2cc(NC(=O)Cc3ccc(-c4cnc(N)cc4Cl)cc3)no2)CC1` [Example 172], for which the Kd in experiment [2] is no more than 1 nM; in experiment [4], no more than 1 nM; in experiment [5], no more than 10 nM. Besides, in experiment [3], the IC50 was 1 to 10 nM.
As to `CC(C)(C)c1cc(NC(=O)C(N)c2ccc(-c3ccc(N)nc3)cc2)no1` (stereo not drawn) [Example 173], the Kd is 1 to 10 nM in experiment [2], 10 to 100 nM in experiment [4] and greater than 500 nM in experiment [5]. In experiment [3], this compound returned an IC50 of 100 to 500 nM.
The like results for `Cc1nc(-c2ccc(CC(=O)Nc3cc(C(C)(C)C)on3)cc2)c(C)nc1N` [Example 174] were, in that order, no more than 1 nM, 1 to 10 nM, 100 to 500 nM and 10 to 100 nM.
Take `CC(C)(C)Sc1cc(-c2ccc(CC(=O)Nc3cc(C(C)(C)C)on3)cc2)cnc1N` [Example 175]: the results for the Kd in experiment [2], in experiment [4] and in experiment [5] were 1 to 10 nM, 10 to 100 nM and 100 to 500 nM, respectively. Also, the IC50 in experiment [3] is 10 to 100 nM.
Regarding `CC(C)(C)c1cc(NC(=O)Cc2ccc(-c3cnc(N)c(S(=O)(=O)C(C)(C)C)c3)cc2)no1` [Example 176], the values for the Kd in experiment [2], in experiment [4] and in experiment [5] were no more than 1 nM, 1 to 10 nM and greater than 500 nM, respectively. The IC50 in experiment [3] lay in the range of 10 to 100 nM.
For `CC1(c2cc(NC(=O)Cc3ccc(-c4cc(F)c(N)nc4F)cc3)no2)CC1` [Example 177] the same measures were no more than 1 nM, 1 to 10 nM, no more than 10 nM and no more than 1 nM.
The like results for `CC(C)(C)c1cc(NC(=O)C(F)(F)c2ccc(-c3ccc(N)nc3)cc2)no1` [Example 178] were, in that order, no more than 1 nM, 1 to 10 nM, no more than 10 nM and 1 to 10 nM.
For `CC(C)(C)c1cc(NC(=O)Cc2ccc(-c3cnc(N)c([S+]([O-])C(C)(C)C)c3)cc2)no1` (stereo not drawn) [Example 179] the same measures were no more than 1 nM, 1 to 10 nM, 100 to 500 nM and 1 to 10 nM.
Turning to `CC(C)(C)c1cc(NC(=O)Cc2ccc(-c3ccc(N)nc3)c(C(F)(F)F)c2)no1` [Example 180], the Kd in experiment [2] was 10 to 100 nM; in experiment [4], greater than 100 nM; in experiment [5], greater than 100 nM. This compound registered an IC50 in experiment [3] greater than 100 nM.
Consider `Cn1[nH]c2ncc(-c3ccc(CC(=O)Nc4cc(C(C)(C)C)on4)cc3)cc2c1=O` [Example 181], for which the values for the Kd in experiment [2], in experiment [4] and in experiment [5] were 1 to 10 nM, 10 to 100 nM and 10 to 100 nM, respectively. In experiment [3], the IC50 was in the range of 1 to 10 nM.
For `CC(C)(C)c1cc(NC(=O)C(O)c2ccc(-c3ccc(N)nc3)cc2)no1` (stereo not drawn) [Example 182], the dissociation constant Kd fell in the range of 1 to 10 nM in experiment [2], 1 to 10 nM in experiment [4] and 10 to 100 nM in experiment [5]. Also, in experiment [3], the IC50 lay in the range of 1 to 10 nM.
For `CC(C)(C)c1cc(NC(=O)Cc2ccc(-c3cnc(N)cc3F)cc2)on1` [Example 183], the Kd is no more than 1 nM in experiment [2], 1 to 10 nM in experiment [4] and no more than 10 nM in experiment [5]. The IC50 in experiment [3] was no more than 1 nM.
Consider `CC(F)(F)C1(c2cc(NC(=O)Cc3ccc(-c4cnc(N)cc4F)cc3)no2)CC1` [Example 184], for which the figures for the Kd in experiment [2], in experiment [4] and in experiment [5] were no more than 1 nM, 1 to 10 nM and no more than 10 nM, respectively. In addition, the IC50 in experiment [3] is no more than 1 nM.
Regarding `CC1(c2cc(NC(=O)Cc3ccc(-c4ccc(NCCS(C)(=O)=O)nc4)cc3)no2)CC1` [Example 185], the results for the Kd in experiment [2], in experiment [4] and in experiment [5] were no more than 1 nM, no more than 1 nM and no more than 10 nM, respectively. In addition, the IC50 in experiment [3] lay in the range of 1 to 10 nM.
`CC(C)c1cc(NC(=O)Cc2ccc(-c3ccc(N)nc3)cc2)no1` [Example 186]: the Kd in experiment [2] is no more than 1 nM; in experiment [4], no more than 1 nM; in experiment [5], no more than 10 nM. The IC50 in experiment [3] was no more than 1 nM.
As to `CN1CC(=O)Nc2ncc(-c3ccc(CC(=O)Nc4cc(C(C)(C)C)on4)cc3)cc2C1` [Example 190], the Kd was in the range of 1 to 10 nM in experiment [2], 1 to 10 nM in experiment [4] and 100 to 500 nM in experiment [5]. In experiment [3], this compound registered an IC50 of 10 to 100 nM.
